Laboratory results published in patent publication US12263248B2, “Compounds and compositions for intracellular delivery of therapeutic agents” (ModernaTX, Inc., priority 2018, dated 2025).
Marks after values point to notes of the source that are not given here.

Experiments:
[1] = Chemical stability of lipids in ethanol (lipid purity); assay type: physicochemical
Protocol: Ester linkages were previously reported to trigger metabolism by esterases in vivo. (See Fukami, T. et al. Drug Metab. Pharmacokinet. 2012, 27, 466-477, the content of which is incorporated by reference herein in its entirety). […] (See Maier M. A., Mol. Ther. 2013, 21, 1570-1578, the content of which is incorporated herein in its entirety) First, the chemical stability of the lipids was evaluated by measuring ethanol stability at room temperature and 37° C. (Table 39). […] LNPs formed with compound 138 were larger, with a surface pKa>7. […] Removal of one ester function (compound 136) afforded LNPs with improved physiochemical characteristics and lower LNP surface pKa.

[2] = Particle size and polydispersity index of nanoparticle compositions (Zetasizer Nano ZS); assay type: physicochemical
Outline: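 Measured in 1×PBS by Zetasizer Nano ZS.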

[3] = tested on: IL-6, IP-10; assay: Cytokine induction in mice upon intravenous administration; assay type: in vivo; set-up: Cytokine induction IL-6 / Cytokine induction IP-10: unit not given here; details: 0.5 mpk, 6 hours; for Cytokine induction IL-6 / Cytokine induction IP-10: intravenous
Outline: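 IL-6 and IP-10 concentrations determined 6 hours after a single intravenous 0.5 mpk dose of lipid nanoparticle formulation in mice, with MC3 and PBS as comparators.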

[4] = Lipid clearance: lipid level in mouse liver tissue (LC-MS/MS); assay type: in vivo; details: for % dose remaining Mouse liver tissue, 24 h: CD-1 mouse liver 24 h after 0.5 mg/kg bolus dose mRNA, n = 5 ± S.D.; for original dose remaining in liver tissue 24 hours post dose: mice, intravenous
Protocol: Quantification of Lipid by LC-MS/MS: Liver samples were homogenized following addition of 19 eq. (w/v) of water (DF=20). Protein was precipitated and analyzed against calibration standards prepared in matching blank. Chromatographic separation and quantification was accomplished with a LC-MS/MS System. Samples were injected and separated via HPLC A triple-quadrupole MS/MS system operated in positive ion mode was used for signal detection.

[5] = tested on: luciferase (Luc) mRNA; assay: Luc expression in liver, lung, spleen and femur 6 hours after intravenous administration; assay type: in vivo; details: mice, intravenous, 0.5 mpk
Outline: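 LNP-formulated mRNA given IV to mice (n=3) at 0.5 mpk; at 6 h, bioluminescence imaged ex vivo 15 min after IP D-luciferin (15 mg/mL, 200 μL), organs imaged within 25 min. Values are total flux by region of interest.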

[6] = tested on: luciferase mRNA; assay: Luciferase expression after subcutaneous administration to mice; assay type: in vivo, female CD-1 mice
Outline: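 Female CD-1 mice given luciferase mRNA in lipid nanoparticle formulations subcutaneously at 0.5 mpk. Expression read by whole-body bioluminescence imaging at 3, 6 and 24 h, with ex vivo liver, spleen and injection-site luminescence at 24 h.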

[7] = tested on: hEPO mRNA; assay: hEPO expression after intramuscular administration to mice; assay type: in vivo
Protocol: The expression of hEPO and cytokine induction in mice intravenously administered a nanoparticle composition at a dose of 0.5 mpk were measured at 3, 6, and 24 hours. […] The expression of hEPO in mice intramuscularly administered a nanoparticle composition from Table 1B at a dose of 0.01 mpk were measured at 3, 6, and 24 hours.
Blood collection and analysis for hEPO. Blood was collected from mice or rats via the tail vein and hEPO concentrations were determined using a hEPO ELISA assay.

[8] = Table 1A, lipid:DSPC:cholesterol:PEG-DMG 50:10:38.5:1.5 mol %
[9] = lipid nanoparticle, ±SD within one assay run (Table 37)
[10] = Table 1B, formulated with hEPO mRNA
[11] = Table 1C, compositions for subcutaneous administration
[12] = Table 1D, for subcutaneous administration, # formulated with hEPO mRNA

Row | Compound | Lipid Purity ([1]; t = 0) [%] | Lipid Purity ([1]; t = 96 h, 25° C.) [%] | Lipid Purity ([1]; t = 96 h, 37° C.) [%] | PDI ([2]; Table 1A) | Size (nm) [2, 8] [nm] | PDI (Polydispersity index) [2, 9] | Cytokine induction IL-6 [3] | Cytokine induction IP-10 [3] | % dose remaining Mouse liver tissue, 24 h [4] [%] | original dose remaining in liver tissue 24 hours post dose [4] [%] | Total Flux Femur [5] | Total Flux Liver [5] | Total Flux Lung [5] | Total Flux Spleen [5] | further results
1 | CCCCC/C=C\C/C=C\CCCCCCCCN(CCO)CCCCCCCC(=O)OC(CCCCCCCC)CCCCCCCC [Compound 6, Heptadecan-9-yl 8-((2-hydroxyethyl)((9Z,12Z)-octadeca-9,12-dien-1-yl)amino)octanoate] | 93.80 | 93.21 | 94.29 | 0.066 | 73.1 | 0.07 ± 0.05 | 136.18 | 316.01 | 67 ± 9.8 | 67 | 2.15E+06 | 1.09E+09 | 4.30E+06 | 3.03E+07 | PDI ([2]; lipid:DSPC:Chol:PEG-DMG (50:10:38.5:1.5), hEPO mRNA): 0.082
2 | CCCCCCCCCOC(=O)CCCN(CCO)CCCCCCCC(=O)OC(CCCCCCCC)CCCCCCCC [Compound 26, Heptadecan-9-yl 8-((2-hydroxyethyl)(4-(nonyloxy)-4-oxobutyl)amino) octanoate] | 98.64 | 97.38 | 95.72 | 0.16 | 91.9 | 0.16 ± 0.03 | 273.56 | 2330.01 |  |  | 4.67E+06 | 2.90E+09 | 1.18E+07 | 1.56E+07 | PDI ([2]; nanoparticle composition with hEPO mRNA (Table 30)): 0.120; IL-6 induction ([3]; i.v., in words): highest; IP-10 induction ([3]; i.v., in words): highest
3 | CCCCCCCCC(CCCCCCCC)OC(=O)CCCCCCCN(CCO)CCCCCCCC(=O)OC(CCCCCCCC)CCCCCCCC [Compound 29, Di(heptadecan-9-yl) 8,8′-((2-hydroxyethyl)azanediyl)dioctanoate] | 97.017 | 97.67 | 98.10 | 0.11 | 66.8 | 0.11 ± 0.03 | 69.54 | 1362.81 | 68 ± 9.2 | 68 | 9.56E+05 | 5.20E+08 | 9.83E+05 | 5.99E+06 | Size [2, 9]: 66.8 ± 1.1 nm
4 | CCCCCCCCCOC(=O)CCCCCCCN(CCO)CCCCCCCOC(=O)C(CCCCCCCC)CCCCCCCC [Compound 30, 7-((2-Hydroxyethyl)(8-(nonyloxy)-8-oxooctyl)amino)heptyl 2-octyldecanoate] |  |  |  | 0.15 | 59.4 |  | 152.51 | 1638.77 |  |  | 6.38E+06 | 2.68E+09 | 1.02E+07 | 3.55E+07 | PDI [2, 10]: 0.13; Size (nm) [2, 10]: 76.3 nm; PDI [2, 11]: 0.12; Size (nm) [2, 11]: 81.7 nm; PDI [2, 12]: 0.11; Size (nm) [2, 12]: 89.8 nm; Novel lipid/MC3 expression ratio, s.c. Luc 0.5 mpk (AUC) ([6]; 0.5 mpk, AUC, relative to MC3): (AUC: 6.38); Lipid/MC3 AUC ratio ([6]; 0.5 mpk, luciferase): 6.38; AUC (luciferase expression) ([6]; 0.5 mpk, whole body BLI): 1.0932E+11 (p/s) * h; Novel lipid/MC3 ratio, s.c. Luc 6 hr. ([6]; 6 hr., relative to MC3, Table 3G): 6.53; factor by which MC3 is outperformed ([6]; female CD-1 mice, 0.5 mpk): 6.5; Fold increase in hEPO concentration relative to MC3 ([7]; mice, 0.01 mpk, 6 hr time point): 9.2; Novel lipid/MC3 ratio, 6 hr. timepoint, i.m. hEPO ([7]; relative to MC3, Table 3G): 9.2
